Structures are written as SMILES.

Consider 18 compounds from US20100305113A1, “Substituted Imidazopyridazines as Lipid Kinase Inhibitors” (priority 2007, published 2010).

What all share (type): biochemical
Common to all, as to details: Enzymatic Data

One test has as its target T1, PI3K beta (Homo sapiens, UniProt P42338).
T1 construct: for the full-length p110-b subunit are generated and fused by overlapping PCR; p85(iSH2) fusion partner (same polypeptide; see partner chain) (N); Gly linker (N); His tag (C); made in house; host or cells: baculovirus; Tn5 (Trichoplusia ni) or TiniPro insect cells
In words: PI3K beta enzymatic assay (Kinase-Glo luminescence). The protocol: (§1) In a more preferred assay, the kinase reaction is performed in a final volume of 10 μL per well of a low volume non binding CORNING, 384 well black plate (Cat. No. #3676). The final concentrations of ATP and phosphatidyl inositol (PI) in the assay are 1 μM and 10 μg/mL respectively. The reaction is started by the addition of ATP.
(§2) The components of the assay are added per well as follows:
(§3) 50 nL test compounds in 90% DMSO per well, in columns 1-20, 8 concentrations (⅓ and 1/3.33 serial dilution step) in single. • Low control: 50 nL of 90% DMSO in half the wells of columns 23-24 (0.45% in final). • High control: 50 nL of reference compound (e.g. compound of Example 7 in WO 2006/122806, incorporated by reference herein that regard) in the other half of columns 23-24 (2.5 μM in final). • Standard: 50 nL of reference compound as just mentioned diluted as the test compounds in columns 21-22 • 20 mL ‘buffer’ are prepared per assay: • 200 μL of 1M TRIS HCl pH7.5 (10 mM in final) • 60 μL of 1M MgCl2 (3 mM in final) • 500 μL of 2M NaCl (50 mM in final) • 100 μL of 10% CHAPS (0.05% in final) • 200 μL of 100 mM DTT (1 mM in final) • 18.94 mL of nanopure water • 10 mL ‘PI’ are prepared per assay: • 200 μL of 1 mg/ml L-alpha-Phosphatidylinositol (Liver Bovine, Avanti Polar Lipids Cat. No. 840042C MW=909.12) prepared in 3% OctylGlucoside ([…]) • 9.8 mL of ‘buffer’ • 10 mL ‘ATP’ are prepared per assay: • 6.7 μL of 3 mM stock of ATP giving a final concentration of 1 μM per well • 10 mL of ‘buffer’ • 2.5 mL of each PI3K construct are prepared per assay in ‘PI’ with the following final concentration: • 10 nM PI3K alfa BV-1075 • 25 nM beta BV-949 • 10 nM delta BV-1060 • 150 nM gamma BV-950 • 5 μL of ‘PI/PI3K’ are added per well. • 5 μl ‘ATP’ are added per well to start the reaction. • The plates are then incubated at room temperature for 60 minutes (alfa, beta, delta) or 120 minutes (gamma). • The reaction is terminated by the addition of 10 μL Kinase-Glo (Promega Cat. No. #6714). • The assay plates are read after 10 minutes in Synergy 2 reader (BioTek, Vermont USA) with an integration time of 100 milliseconds and sensitivity set to 191. • Output: The High control is around 60′000 counts and the Low control is 30′000 or lower • This luminescence assay gives a useful Z′ ratio between 0.4 and 0.7 The Z′ value is a universal measurement of the robustness of an assay. A Z′ between 0.5 and 1.0 is considered an excellent assay.
PI3Kβ BV-949 p85(iSH2)-Gly linker-p110b (Full-Length)-C-Term His Tag
(§4) IC50 is determined by a four parameter curve fitting routine that comes aloneg with “excel fit”. A 4 Parameter logistic equation is used to calculate IC50 values (IDBS XLfit) of the percentage inhibition of each compound at 8 concentrations (usually 10, 3.0, 1.0, 0.3, 0.1, 0.030, 0.010 and 0.003 μM). Alternatively, IC50 values are calculated using idbsXLfit model 204, which is a 4 parameter logistic model.
Background: Kinase-Glo reads ATP consumption through a luciferase reaction.

Another test addresses T2, PI3K gamma (Homo sapiens, UniProt P48736).
T2 construct: His tag (C); made in house; host or cells: construct from Roger Williams lab (MRC LMB); baculovirus (pVL1393); Tn5 (Trichoplusia ni) or TiniPro insect cells
Briefly: PI3K gamma enzymatic assay (Kinase-Glo luminescence). Here is the method: as §1, §2, §3, §4

The target in another test is T3, PI3K alfa (Homo sapiens, UniProt P42336).
T3 construct: p85(iSH2) fusion partner (same polypeptide; see partner chain) (N); 12x Gly linker (N); His tag (C); made in house; host or cells: baculovirus; Tn5 (Trichoplusia ni) or TiniPro insect cells
Briefly: PI3K alfa enzymatic assay (Kinase-Glo luminescence). Here is the method:
as §1, §2, §3, §4

The next test addresses T4, PI3K delta (Homo sapiens, UniProt O00329).
T4 construct: for the full-length p110-d subunit are generated and fused by overlapping PCR; p85(iSH2) fusion partner (same polypeptide; see partner chain) (N); Gly linker (N); His tag (C); made in house; host or cells: baculovirus; Tn5 (Trichoplusia ni) or TiniPro insect cells
In words: PI3K delta enzymatic assay (Kinase-Glo luminescence). The protocol:
as §1, §2, §3
PI3Kδ BV-1060 p85(iSH2)-Gly Linker-p110d (Full-Length)-C-term His Tact
as §4

T2 sequence (P48736 144-1102 limits assumed): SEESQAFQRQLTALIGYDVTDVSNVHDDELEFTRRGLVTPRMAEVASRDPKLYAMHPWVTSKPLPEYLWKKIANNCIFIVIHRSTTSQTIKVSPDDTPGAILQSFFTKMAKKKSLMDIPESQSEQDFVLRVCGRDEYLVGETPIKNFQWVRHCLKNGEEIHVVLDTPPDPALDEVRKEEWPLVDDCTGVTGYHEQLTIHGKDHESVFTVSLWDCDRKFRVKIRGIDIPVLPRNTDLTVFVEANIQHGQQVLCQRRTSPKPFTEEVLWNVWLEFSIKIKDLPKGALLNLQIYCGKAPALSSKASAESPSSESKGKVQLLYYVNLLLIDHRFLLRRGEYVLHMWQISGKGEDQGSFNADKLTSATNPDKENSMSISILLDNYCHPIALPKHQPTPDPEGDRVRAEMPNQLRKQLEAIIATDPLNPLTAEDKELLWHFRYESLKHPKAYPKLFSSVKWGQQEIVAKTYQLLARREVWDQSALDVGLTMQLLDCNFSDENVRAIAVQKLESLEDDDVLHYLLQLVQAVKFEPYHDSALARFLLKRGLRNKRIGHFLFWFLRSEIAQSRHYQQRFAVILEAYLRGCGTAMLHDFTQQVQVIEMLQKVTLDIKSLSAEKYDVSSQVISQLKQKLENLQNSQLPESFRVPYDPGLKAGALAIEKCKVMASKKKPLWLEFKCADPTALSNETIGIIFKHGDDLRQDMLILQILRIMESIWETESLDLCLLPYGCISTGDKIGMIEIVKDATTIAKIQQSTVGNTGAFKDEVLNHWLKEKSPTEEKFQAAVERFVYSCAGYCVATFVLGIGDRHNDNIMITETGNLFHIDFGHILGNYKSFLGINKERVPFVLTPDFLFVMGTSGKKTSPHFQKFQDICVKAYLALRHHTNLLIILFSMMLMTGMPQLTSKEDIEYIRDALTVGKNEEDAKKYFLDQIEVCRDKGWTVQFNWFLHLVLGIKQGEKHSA
T3 sequence (P42336 with tags, fused parts or gaps limits assumed): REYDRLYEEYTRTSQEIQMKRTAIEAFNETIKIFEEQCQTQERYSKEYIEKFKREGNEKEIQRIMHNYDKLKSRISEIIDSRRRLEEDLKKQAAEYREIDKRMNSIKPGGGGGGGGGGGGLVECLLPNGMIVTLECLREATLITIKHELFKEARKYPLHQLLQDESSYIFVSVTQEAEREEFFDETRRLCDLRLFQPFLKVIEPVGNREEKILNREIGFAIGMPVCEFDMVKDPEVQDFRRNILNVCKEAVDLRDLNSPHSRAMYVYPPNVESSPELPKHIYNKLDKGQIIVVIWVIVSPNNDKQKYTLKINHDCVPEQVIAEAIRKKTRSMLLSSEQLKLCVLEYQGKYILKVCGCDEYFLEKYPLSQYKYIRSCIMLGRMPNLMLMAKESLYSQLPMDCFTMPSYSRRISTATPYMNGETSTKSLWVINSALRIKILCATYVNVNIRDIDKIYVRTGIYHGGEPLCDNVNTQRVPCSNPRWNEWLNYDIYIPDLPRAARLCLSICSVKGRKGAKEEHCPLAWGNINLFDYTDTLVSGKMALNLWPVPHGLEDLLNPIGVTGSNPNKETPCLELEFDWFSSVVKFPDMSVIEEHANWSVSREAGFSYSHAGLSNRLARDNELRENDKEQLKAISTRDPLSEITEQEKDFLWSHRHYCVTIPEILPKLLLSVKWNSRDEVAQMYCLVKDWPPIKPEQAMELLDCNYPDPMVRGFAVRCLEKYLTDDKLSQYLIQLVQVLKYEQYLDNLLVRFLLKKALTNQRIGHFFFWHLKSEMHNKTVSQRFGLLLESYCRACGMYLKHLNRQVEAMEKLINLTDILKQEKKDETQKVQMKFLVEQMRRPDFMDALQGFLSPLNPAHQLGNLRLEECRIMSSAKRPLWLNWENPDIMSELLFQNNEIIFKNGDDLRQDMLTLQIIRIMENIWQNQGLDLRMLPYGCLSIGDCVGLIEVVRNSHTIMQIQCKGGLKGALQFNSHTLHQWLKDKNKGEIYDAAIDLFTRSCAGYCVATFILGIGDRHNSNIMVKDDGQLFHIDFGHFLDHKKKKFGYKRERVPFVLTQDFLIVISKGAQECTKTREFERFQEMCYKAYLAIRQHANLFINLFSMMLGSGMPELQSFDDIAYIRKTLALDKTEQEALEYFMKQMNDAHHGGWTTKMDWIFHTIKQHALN
T1 sequence (P42338 with tags, fused parts or gaps limits assumed): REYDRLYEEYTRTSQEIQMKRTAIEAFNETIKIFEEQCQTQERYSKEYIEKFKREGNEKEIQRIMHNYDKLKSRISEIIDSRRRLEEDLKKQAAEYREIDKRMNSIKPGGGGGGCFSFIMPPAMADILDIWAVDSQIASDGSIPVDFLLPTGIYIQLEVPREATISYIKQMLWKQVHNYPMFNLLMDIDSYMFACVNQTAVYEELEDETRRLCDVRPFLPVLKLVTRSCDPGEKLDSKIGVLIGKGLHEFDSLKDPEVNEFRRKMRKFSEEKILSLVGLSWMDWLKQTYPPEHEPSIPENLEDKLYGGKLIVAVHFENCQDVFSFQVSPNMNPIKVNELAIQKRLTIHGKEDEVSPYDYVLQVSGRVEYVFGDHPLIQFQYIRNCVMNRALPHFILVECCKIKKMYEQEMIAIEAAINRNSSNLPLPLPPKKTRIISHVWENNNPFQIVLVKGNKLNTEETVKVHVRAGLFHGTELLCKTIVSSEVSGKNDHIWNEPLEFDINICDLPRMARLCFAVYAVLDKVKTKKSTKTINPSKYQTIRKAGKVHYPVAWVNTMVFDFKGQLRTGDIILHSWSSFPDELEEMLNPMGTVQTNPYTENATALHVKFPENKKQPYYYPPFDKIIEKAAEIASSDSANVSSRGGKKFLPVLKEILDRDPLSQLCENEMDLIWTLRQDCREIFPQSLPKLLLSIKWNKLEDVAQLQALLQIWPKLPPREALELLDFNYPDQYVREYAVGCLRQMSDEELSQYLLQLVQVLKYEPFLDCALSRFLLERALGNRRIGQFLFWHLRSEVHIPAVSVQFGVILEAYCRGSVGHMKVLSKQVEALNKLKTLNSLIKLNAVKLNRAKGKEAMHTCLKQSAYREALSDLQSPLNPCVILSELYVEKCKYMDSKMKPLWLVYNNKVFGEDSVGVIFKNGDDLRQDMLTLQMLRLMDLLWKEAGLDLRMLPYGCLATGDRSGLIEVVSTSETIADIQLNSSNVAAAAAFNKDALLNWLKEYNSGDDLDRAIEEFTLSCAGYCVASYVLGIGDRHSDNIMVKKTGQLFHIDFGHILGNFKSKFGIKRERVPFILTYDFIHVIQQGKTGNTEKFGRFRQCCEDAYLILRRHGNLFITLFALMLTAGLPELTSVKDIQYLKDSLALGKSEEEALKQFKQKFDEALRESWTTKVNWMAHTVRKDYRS
T4 sequence (O00329 with tags, fused parts or gaps limits assumed): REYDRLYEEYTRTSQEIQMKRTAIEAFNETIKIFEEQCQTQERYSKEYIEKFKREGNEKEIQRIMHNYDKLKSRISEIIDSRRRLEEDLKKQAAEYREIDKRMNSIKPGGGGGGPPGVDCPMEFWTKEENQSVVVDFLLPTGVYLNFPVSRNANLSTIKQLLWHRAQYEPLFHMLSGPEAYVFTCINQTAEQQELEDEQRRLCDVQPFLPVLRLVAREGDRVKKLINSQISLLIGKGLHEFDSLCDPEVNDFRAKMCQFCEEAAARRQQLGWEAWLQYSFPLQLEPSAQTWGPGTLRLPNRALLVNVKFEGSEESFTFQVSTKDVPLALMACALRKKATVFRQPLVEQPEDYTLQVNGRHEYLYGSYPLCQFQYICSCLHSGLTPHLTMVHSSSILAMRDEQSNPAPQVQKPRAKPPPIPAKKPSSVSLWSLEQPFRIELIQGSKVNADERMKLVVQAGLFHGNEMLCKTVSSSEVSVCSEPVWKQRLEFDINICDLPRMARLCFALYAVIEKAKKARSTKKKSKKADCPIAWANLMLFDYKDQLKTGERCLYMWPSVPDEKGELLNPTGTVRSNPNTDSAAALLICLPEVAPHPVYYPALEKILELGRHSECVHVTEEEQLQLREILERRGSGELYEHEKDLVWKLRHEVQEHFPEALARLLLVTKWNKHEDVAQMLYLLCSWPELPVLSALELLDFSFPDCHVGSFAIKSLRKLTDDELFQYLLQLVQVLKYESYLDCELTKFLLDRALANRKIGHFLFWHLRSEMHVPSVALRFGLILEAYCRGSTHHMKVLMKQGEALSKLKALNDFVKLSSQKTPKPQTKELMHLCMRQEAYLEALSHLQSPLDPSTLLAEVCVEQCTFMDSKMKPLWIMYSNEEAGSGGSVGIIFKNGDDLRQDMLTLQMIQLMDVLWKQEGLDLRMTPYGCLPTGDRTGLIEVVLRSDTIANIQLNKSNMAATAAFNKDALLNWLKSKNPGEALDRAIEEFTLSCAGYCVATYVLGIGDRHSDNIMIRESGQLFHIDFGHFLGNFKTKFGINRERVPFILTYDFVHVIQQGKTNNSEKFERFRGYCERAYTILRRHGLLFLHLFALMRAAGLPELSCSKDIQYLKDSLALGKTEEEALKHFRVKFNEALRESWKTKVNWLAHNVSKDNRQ

Turning to `COc1ccc(-c2ccc3nc(C)c(-c4ccn(S(=O)(=O)c5ccc(C#N)cc5)n4)n3n2)cc1OC` [Example 21, 4-{3-[6-(3,4-Dimethoxy-phenyl)-2-methyl-imidazo[1,2-b]pyridazin-3-yl]-pyrazole-1-sulfonyl}-benzonitrile], the IC50 (commonly the concentration needed to halve the response being measured) was above 9.1 µM at PI3K beta, 0.655 µM at PI3K gamma, 0.408 µM on PI3K alfa and 0.406 µM on PI3K delta.

Turning to `COc1ccc(-c2ccc3nc(C)c(-c4ccc(N5CCNCC5)nc4)n3n2)cc1OC` [Example 11, 6-(3,4-Dimethoxy-phenyl)-2-methyl-3-(6-piperazin-1-yl-pyridin-3-yl)-imidazo[1,2-b]pyridazine], the concentration for half-maximal inhibition (IC50) at PI3K beta came to 0.613 µM; at PI3K gamma, 0.536 µM; on PI3K alfa, 0.11 µM; on PI3K delta it was 2.39 µM.

With `COc1cc(-c2ccc3nc(C)c(-c4cnc(N)c(C(F)(F)F)c4)n3n2)ccc1OCCNC(=O)C(C)C` [Example 81], the IC50 was above 9.1 µM on PI3K beta, 0.503 µM on PI3K gamma, 0.03 µM on PI3K alfa and 0.372 µM on PI3K delta.

Regarding `COc1cc(-c2ccc3nc(C)c(-c4cnc(N)c(C(F)(F)F)c4)n3n2)ccc1OC1CCN(C(=O)OC(C)(C)C)CC1` [Example 92, 4-{4-[3-(6-Amino-5-trifluoromethyl-pyridin-3-yl)-2-methyl-imidazo[1,2-b]pyridazin-6-yl]-2-methoxy-phenoxy}-piperidine-1-carboxylic acid tert-butyl ester], the IC50 on PI3K beta was above 9.1 µM; on PI3K gamma, above 9.1 µM; on PI3K alfa, 1.78 µM; on PI3K delta, above 9.1 µM.

In the case of `CCS(=O)(=O)c1ccc(-c2c(C)nc3ccc(-c4ccc(OCCCN5CCCC5=O)cc4)nn23)cc1` [Example 107, 1-(3-{4-[3-(4-Ethanesulfonyl-phenyl)-2-methyl-imidazo[1,2-b]pyridazin-6-yl]-phenoxy}-propyl)-pyrrolidin-2-one], the IC50 on PI3K beta was above 9.1 µM; at PI3K gamma, above 9.1 µM; on PI3K alfa it was 4.69 µM; on PI3K delta it was 2.99 µM.

For `COc1cc(-c2ccc3nc(C)c(-c4cnc(N)c(C(F)(F)F)c4)n3n2)ccc1OCCNC(=O)Nc1cc(OC)c(OC)c(OC)c1` [Example 61], the half-inhibitory concentration (IC50) on PI3K beta is above 9.1 µM; at PI3K gamma, 0.194 µM; at PI3K alfa, 0.242 µM; on PI3K delta, 2.71 µM.

In the case of `COc1cc(-c2ccc3nc(C)c(-c4cnc(N)c(C(F)(F)F)c4)n3n2)ccc1OCCN1CCNC1=O` [Example 104, 1-(2-{4-[3-(6-Amino-5-trifluoromethyl-pyridin-3-yl)-2-methyl-imidazo[1,2-b]pyridazin-6-yl]-2-methoxy-phenoxy}-ethyl)-imidazolidin-2-one], the IC50 on PI3K beta is 2.08 µM; on PI3K gamma, 0.477 µM; on PI3K alfa, 0.031 µM; at PI3K delta it was 0.255 µM.

`COc1ccc(-c2ccc3nc(C)c(-c4ccnc(-n5ccnc5)n4)n3n2)cc1OC` [Example 83, 6-(3,4-Dimethoxy-phenyl)-3-(2-imidazol-1-yl-pyrimidin-4-yl)-2-methyl-imidazo[1,2-b]pyridazine]: the IC50 at PI3K beta is above 9.1 µM; on PI3K gamma, 1.16 µM; at PI3K alfa, 0.276 µM; on PI3K delta, 0.397 µM.

As for `COc1cc(-c2ccc3nc(C)c(-c4cnc(N)c(C(F)(F)F)c4)n3n2)ccc1OCCNC(=O)c1ccncc1` [Example 29], the IC50 on PI3K beta is above 9.1 µM; at PI3K gamma, 2.74 µM; at PI3K alfa, 0.093 µM; at PI3K delta, 1.59 µM.

`COc1cccc(C(=O)NCCOc2ccc(-c3ccc4nc(C)c(-c5cnc(N)c(C(F)(F)F)c5)n4n3)cc2OC)c1` [Example 39]: the IC50 is above 9.1 µM at PI3K beta, above 9.1 µM at PI3K gamma, 0.368 µM at PI3K alfa and above 9.1 µM at PI3K delta.

For `COc1cc(-c2ccc3nc(C)c(-c4cnc(N)c(C(F)(F)F)c4)n3n2)ccc1OCCCNC(=O)C(C)C` [Example 82], the IC50 on PI3K beta was determined as 4.01 µM; on PI3K gamma, 0.087 µM; on PI3K alfa, 0.019 µM; at PI3K delta, 0.164 µM.

Regarding `COc1cc(-c2ccc3nc(C)c(-c4ccc(S(C)(=O)=O)cc4)n3n2)ccc1OC1CCN(C(=O)OC(C)(C)C)CC1` [Example 98, 4-{4-[3-(4-Methanesulfonyl-phenyl)-2-methyl-imidazo[1,2-b]pyridazin-6-yl]-2-methoxy-phenoxy}-piperidine-1-carboxylic acid tert-butyl ester], the IC50 at PI3K beta was above 9.1 µM; at PI3K gamma, above 9.1 µM; on PI3K alfa, 9.09 µM; on PI3K delta, above 9.1 µM.

As for `COc1ccc(-c2ccc3nc(C)c(-c4cnc(N)c(C(F)(F)F)c4)n3n2)cc1OCCCNC(=O)c1ccncc1` [Example 97, N-(3-{5-[3-(6-Amino-5-trifluoromethyl-pyridin-3-yl)-2-methyl-imidazo[1,2-b]pyridazin-6-yl]-2-methoxy-phenoxy}-propyl)-isonicotinamide], the 50% inhibitory concentration (IC50) is above 9.1 µM on PI3K beta, 1.33 µM on PI3K gamma, 0.118 µM at PI3K alfa and 0.966 µM at PI3K delta.

For the compound `COc1ccc(-c2ccc3nc(C)c(-c4ccnc(NCc5ccccc5)n4)n3n2)cc1OC` [Example 86, Benzyl-{4-[6-(3,4-dimethoxy-phenyl)-2-methyl-imidazo[1,2-b]pyridazin-3-yl]-pyrimidin-2-yl}-amine], the half-maximal inhibitory concentration (IC50) was above 9.1 µM on PI3K beta, 8.51 µM at PI3K gamma, 2.15 µM at PI3K alfa and 4 µM on PI3K delta.

On to `COc1cccc(NC(=O)NCCOc2ccc(-c3ccc4nc(C)c(-c5cnc(N)c(C(F)(F)F)c5)n4n3)cc2OC)c1` [Example 59], for which the IC50 is above 9.1 µM on PI3K beta, 2.64 µM at PI3K gamma, 0.371 µM on PI3K alfa and above 9.1 µM on PI3K delta.

Take `COc1cc(-c2ccc3nc(C)c(-c4cnc(N)c(C(F)(F)F)c4)n3n2)ccc1OCCCNC(=O)OC(C)C` [Example 80]: the IC50 is above 9.1 µM on PI3K beta, 1.93 µM at PI3K gamma, 0.175 µM at PI3K alfa and 2.7 µM on PI3K delta.

As for `COc1cc(-c2ccc3nc(C)c(-c4cnc(N)c(C(F)(F)F)c4)n3n2)ccc1OCCN(CC(=O)N(C)C)CC(=O)N(C)C` [Example 103, 2-[(2-{4-[3-(6-Amino-5-trifluoromethyl-pyridin-3-yl)-2-methyl-imidazol[1,2-b]pyridazin-6-yl]-2-methoxy-phenoxy}-ethyl)-dimethylcarbamoylmethyl-amino]-N,N-dimethyl-acetamide], the IC50 on PI3K beta stood at 1.83 µM; at PI3K gamma, 0.662 µM; on PI3K alfa, 0.015 µM; on PI3K delta, 0.362 µM.

Consider `COc1ccc(C(=O)NCCOc2ccc(-c3ccc4nc(C)c(-c5cnc(N)c(C(F)(F)F)c5)n4n3)cc2OC)cc1OC` [Example 37], for which the IC50 at PI3K beta is above 9.1 µM; on PI3K gamma it was 2.3 µM; at PI3K alfa, 0.233 µM; on PI3K delta, above 9.1 µM.
